Assay results as given in patent publication US20100056526A1, “HETEROMONOCYCLIC COMPOUND AND USE THEREOF” (Takeda Pharmaceutical Company Limited, priority 2006, published 2010).
Structures can show the parent of a compound that is named as a salt. Where two headings read alike, the source gives them in different places.

Legend:
human AT1 receptor = molecular target: T1, human AT1 receptor (Homo sapiens, UniProt P30556); test: Binding assay using human AT1 receptor-expressing CHO-K1 cell membrane fraction ([125I]-angiotensin II); conditions: 22.5 pM [125I]-angiotensin II, 9 μg AT1 membrane, 1 hr room temperature; read-out: AT1 receptor binding inhibitory action (IC50 (nM))
T1 construct: expressed in transfected cells; host or cells: CHO-K1
T1 sequence (P30556 1-359): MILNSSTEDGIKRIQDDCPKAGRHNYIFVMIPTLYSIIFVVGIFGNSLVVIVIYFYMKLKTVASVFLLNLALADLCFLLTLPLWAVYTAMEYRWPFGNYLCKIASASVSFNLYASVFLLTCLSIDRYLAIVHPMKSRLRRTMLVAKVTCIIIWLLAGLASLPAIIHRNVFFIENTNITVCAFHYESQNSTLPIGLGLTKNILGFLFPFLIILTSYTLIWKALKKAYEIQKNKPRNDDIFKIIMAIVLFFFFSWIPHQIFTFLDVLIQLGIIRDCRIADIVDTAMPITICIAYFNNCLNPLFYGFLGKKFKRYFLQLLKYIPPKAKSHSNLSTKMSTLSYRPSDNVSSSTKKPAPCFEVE
Method in brief: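 CHO-K1 membranes stably expressing AT1 (9 μg) incubated with 22.5 pM [125I]-angiotensin II and compound in 50 mM Tris pH 7.4, 10 mM MgCl2, with or without 0.3 mg/mL fatty acid-free BSA, 1 hr at room temperature. Bound radioactivity counted after GF/C filtration; nonspecific binding with 1 μM CV-11974; IC50 calculated.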

PPARγ = molecular target: T2, PPARγ (Homo sapiens, UniProt P37231); test: Evaluation of PPARγ activating action (luciferase reporter in PPARγ:RXRα:4ERPP/CHO-K1 cells); type: cell-based; conditions: CHO-K1, 24 h, read-out: PPARγ activating action (activation % (10^−6 M))
T2 construct: expressed in transfected cells; host or cells: CHO-K1
T2 sequence (P37231 1-477 isoform P37231-2): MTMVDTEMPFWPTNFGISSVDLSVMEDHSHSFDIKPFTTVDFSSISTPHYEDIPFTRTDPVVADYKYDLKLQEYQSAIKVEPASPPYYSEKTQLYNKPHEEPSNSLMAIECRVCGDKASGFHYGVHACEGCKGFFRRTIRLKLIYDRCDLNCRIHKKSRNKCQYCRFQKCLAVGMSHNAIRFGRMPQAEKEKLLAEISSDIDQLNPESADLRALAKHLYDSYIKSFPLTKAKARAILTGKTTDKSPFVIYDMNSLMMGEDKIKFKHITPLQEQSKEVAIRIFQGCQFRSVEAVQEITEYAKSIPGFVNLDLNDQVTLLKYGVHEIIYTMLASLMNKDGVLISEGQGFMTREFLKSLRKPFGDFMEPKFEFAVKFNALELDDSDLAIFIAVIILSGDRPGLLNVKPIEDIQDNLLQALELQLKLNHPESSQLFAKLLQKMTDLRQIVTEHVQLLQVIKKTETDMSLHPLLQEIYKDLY
T2 sequence (P19793 1-462 partner): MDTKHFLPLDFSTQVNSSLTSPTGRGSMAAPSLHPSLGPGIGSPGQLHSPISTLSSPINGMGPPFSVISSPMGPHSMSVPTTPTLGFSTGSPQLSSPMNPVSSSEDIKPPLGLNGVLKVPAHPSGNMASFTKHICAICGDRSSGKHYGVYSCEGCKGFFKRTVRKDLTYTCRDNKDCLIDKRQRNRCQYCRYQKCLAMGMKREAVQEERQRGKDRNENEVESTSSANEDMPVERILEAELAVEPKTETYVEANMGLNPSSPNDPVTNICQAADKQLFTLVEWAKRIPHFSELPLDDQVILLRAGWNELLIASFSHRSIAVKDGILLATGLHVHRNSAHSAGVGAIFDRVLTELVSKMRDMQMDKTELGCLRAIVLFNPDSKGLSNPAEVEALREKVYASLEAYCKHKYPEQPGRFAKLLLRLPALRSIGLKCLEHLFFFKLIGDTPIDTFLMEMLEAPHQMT
Method in brief: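 CHO-K1 cells stably carrying PPARγ, RXRα and a 4ERPP luciferase reporter were treated with compound for 1 day at 37 °C in F12 medium with 0.1% fatty acid-free BSA. Luciferase activity was read and scaled between no compound (0%) and reference agonist compound X at 1 μM (100%).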

[1] = test compound 10^−6 M, luciferase activity relative to control compound X (1 μM) = 100%, non-administration group = 0%

| Structure (SMILES) | IC50 (human AT1 receptor) | activation at 1 µM (PPARγ; [1]) | activation at 1 µM (PPARγ) |
| --- | --- | --- | --- |
| CCCc1nc(C)n(-c2ccc(OC(C)COC)cc2)c(=O)c1Cc1ccc(-c2ccccc2-c2noc(=O)[nH]2)cc1 (stereo not drawn) [Example 293, 3-[4-(2-methoxy-1-methylethoxy)phenyl]-2-methyl-5-{[2′-(5-oxo-4,5-dihydro-1,2,4-oxadiazol-3-yl)biphenyl-4-yl]methyl}-6-propylpyrimidin-4(3H)-one] | 1.8 nM | 28.2% |  |
| CCCCc1nc(C)n(CCCC)c(=O)c1Cc1ccc(-c2ccccc2-c2noc(=O)[nH]2)cc1 [Example 294, 3,6-dibutyl-2-methyl-5-{[2′-(5-oxo-4,5-dihydro-1,2,4-oxadiazol-3-yl)biphenyl-4-yl]methyl}pyrimidin-4(3H)-one] | 1.8 nM | 47.1% |  |
| CCCCc1nc(C2CC2)n(-c2ccccc2)c(=O)c1Cc1ccc(-c2ccccc2-c2noc(=O)[nH]2)cc1 [Example 310, 6-butyl-2-cyclopropyl-5-{[2′-(5-oxo-4,5-dihydro-1,2,4-oxadiazol-3-yl)biphenyl-4-yl]methyl}-3-phenylpyrimidin-4(3H)-one potassium salt] | 1.9 nM |  | 27.1% |
| CCCc1nc(CC)n(-c2ccc3c(c2)CCO3)c(=O)c1Cc1ccc(-c2ccccc2-c2noc(O)n2)cc1 [Example 311, 3-(2,3-dihydro-1-benzofuran-5-yl)-2-ethyl-5-{[2′-(5-oxo-4,5-dihydro-1,2,4-oxadiazol-3-yl)biphenyl-4-yl]methyl}-6-propylpyrimidin-4(3H)-one potassium salt] | 1.6 nM |  | 38.1% |
| CCCc1nc(CC)n(-c2ccc3c(c2)CC(C)O3)c(=O)c1Cc1ccc(-c2ccccc2-c2noc(O)n2)cc1 (stereo not drawn) [Example 312, 2-ethyl-3-(2-methyl-2,3-dihydro-1-benzofuran-5-yl)-5-{[2′-(5-oxo-4,5-dihydro-1,2,4-oxadiazol-3-yl)biphenyl-4-yl]methyl}-6-propylpyrimidin-4(3H)-one potassium salt] | 1.6 nM |  | 50.3% |
| CCCc1nc(CC)n(-c2ccc(OC)cc2)c(=O)c1Cc1ccc(-c2ccccc2-c2noc(O)n2)cc1 [Example 313, 2-ethyl-3-(4-methoxyphenyl)-5-{[2′-(5-oxo-4,5-dihydro-1,2,4-oxadiazol-3-yl)biphenyl-4-yl]methyl}-6-propylpyrimidin-4(3H)-one potassium salt] | 1.5 nM |  | 31% |
| CCCc1nc(C)n(-c2ccc(OC3CCC3)c(F)c2)c(=O)c1Cc1ccc(-c2ccccc2-c2noc(=O)[nH]2)cc1 [Example 318, 3-[4-(cyclobutyloxy)-3-fluorophenyl]-2-methyl-5-{[2′-(5-oxo-4,5-dihydro-1,2,4-oxadiazol-3-yl)biphenyl-4-yl]methyl}-6-propylpyrimidin-4(3H)-one] | 1.8 nM | 19.2% |  |
| CCCc1nc(C)n(-c2ccc(OC3CCCC3)cc2)c(=O)c1Cc1ccc(-c2ccccc2-c2noc(=O)[nH]2)cc1 [Example 319, 3-[4-(cyclopentyloxy)phenyl]-2-methyl-5-{[2′-(5-oxo-4,5-dihydro-1,2,4-oxadiazol-3-yl)biphenyl-4-yl]methyl}-6-propylpyrimidin-4(3H)-one] | 1.8 nM | 17.2% |  |
| CCCc1nc(C)n(C=C(C)C)c(=O)c1Cc1ccc(-c2ccccc2-c2noc(=O)[nH]2)cc1 [Example 323, 2-methyl-3-(2-methylprop-1-en-1-yl)-5-{[2′-(5-oxo-4,5-dihydro-1,2,4-oxadiazol-3-yl)biphenyl-4-yl]methyl}-6-propylpyrimidin-4(3H)-one] | 2.1 nM | 20% |  |
| C#CCC(C)Oc1ccc(-n2c(C)nc(CCC)c(Cc3ccc(-c4ccccc4-c4noc(=O)[nH]4)cc3)c2=O)cc1 (stereo not drawn) [Example 324, 2-methyl-3-{4-[(1-methylbut-3-yn-1-yl)oxy]phenyl}-5-{[2′-(5-oxo-4,5-dihydro-1,2,4-oxadiazol-3-yl)biphenyl-4-yl]methyl}-6-propylpyrimidin-4(3H)-one] | 1.7 nM | 45.2% |  |
| CCCc1nc(C)n(-c2ccc(OC(C)C)nc2)c(=O)c1Cc1ccc(-c2ccccc2-c2noc(=O)[nH]2)cc1 [Example 325, 3-(6-isopropoxypyridin-3-yl)-2-methyl-5-{[2′-(5-oxo-4,5-dihydro-1,2,4-oxadiazol-3-yl)biphenyl-4-yl]methyl}-6-propylpyrimidin-4(3H)-one] | 3.4 nM | 30.2% |  |
| CCCc1nc(C)n(-c2ccc(OC(C)C#N)cc2)c(=O)c1Cc1ccc(-c2ccccc2-c2noc(=O)[nH]2)cc1 (stereo not drawn) [Example 327, 2-{4-[2-methyl-6-oxo-5-{[2′-(5-oxo-4,5-dihydro-1,2,4-oxadiazol-3-yl)biphenyl-4-yl]methyl}-4-propylpyrimidin-1(6H)-yl]phenoxy}propanenitrile] | 2.2 nM | 22.6% |  |
| CCCc1nc(C)n(-c2ccc(O[C@@H]3C[C@@H](C)O[C@@H](C)C3)cc2)c(=O)c1Cc1ccc(-c2ccccc2-c2noc(=O)[nH]2)cc1F [Example 338, 3-(4-{[(2R,4s,6S)-2,6-dimethyltetrahydro-2H-pyran-4-yl]oxy}phenyl)-5-{[3-fluoro-2′-(5-oxo-4,5-dihydro-1,2,4-oxadiazol-3-yl)biphenyl-4-yl]methyl}-2-methyl-6-propylpyrimidin-4(3H)-one] | 1.8 nM | 32.5% |  |
| CCCc1nc(C)n(-c2ccc(OC3CCC(O)CC3)cc2)c(=O)c1Cc1ccc(-c2ccccc2-c2noc(O)n2)cc1F (stereo not drawn) [Example 343, 5-{[3-fluoro-2′-(5-oxo-4,5-dihydro-1,2,4-oxadiazol-3-yl)biphenyl-4-yl]methyl}-3-{4-[(4-hydroxycyclohexyl)oxy]phenyl}-2-methyl-6-propylpyrimidin-4(3H)-one] | 0.7 nM | 15.2% |  |
| CCCc1nc(C)n(-c2ccc(OC3CCC(=O)CC3)cc2)c(=O)c1Cc1ccc(-c2ccccc2-c2noc(O)n2)cc1F [Example 346, 5-{[3-fluoro-2′-(5-oxo-4,5-dihydro-1,2,4-oxadiazol-3-yl)biphenyl-4-yl]methyl}-2-methyl-3-{4-[(4-oxocyclohexyl)oxy]phenyl}-6-propylpyrimidin-4(3H)-one] | 1 nM | 21.8% |  |
| CCCc1nc(C)n(-c2ccc(OC3CCC(=O)C(C)C3)cc2)c(=O)c1Cc1ccc(-c2ccccc2-c2noc(O)n2)cc1 (stereo not drawn) [Example 356, 2-methyl-3-{4-[(3-methyl-4-oxocyclohexyl)oxy]phenyl}-5-{[2′-(5-oxo-4,5-dihydro-1,2,4-oxadiazol-3-yl)biphenyl-4-yl]methyl}-6-propylpyrimidin-4(3H)-one] | 1.1 nM | 16.6% |  |
| CCCc1nc(CC)n(-c2ccc(OC(C)C)cc2)c(=O)c1Cc1ccc(-c2ccccc2-c2noc(=O)[nH]2)cc1 [Example 362, 2-ethyl-3-(4-isopropoxyphenyl)-5-{[2′-(5-oxo-4,5-dihydro-1,2,4-oxadiazol-3-yl)biphenyl-4-yl]methyl}-6-propylpyrimidin-4(3H)-one] | 2.4 nM | 58.7% |  |
| CCCc1nc(CC)n(-c2ccc(OC(C)C)c(F)c2)c(=O)c1Cc1ccc(-c2ccccc2-c2noc(=O)[nH]2)cc1 [Example 363, 2-ethyl-3-(3-fluoro-4-isopropoxyphenyl)-5-{[2′-(5-oxo-4,5-dihydro-1,2,4-oxadiazol-3-yl)biphenyl-4-yl]methyl}-6-propylpyrimidin-4(3H)-one] | 2.1 nM | 53.7% |  |
